Results: patent publication US6521623B1, “N,N'-disubstituted benzimidazolone derivatives with affinity at the serotonin and dopamine receptors” (Boehringer Ingelheim Pharma KG, priority 2000, dated 2003)

Columns and labels:
D4 human receptors = target: T1, D4 human receptors (Homo sapiens, UniProt P21917); assay: D4 Radioligand Receptor Binding Assay ([3H] YM-09151-2, CHO cell membranes); conditions: compound 10^−7 M, singlicate, [3H] YM-09151-2 0.15-0.25 nM
T1 construct: expressed in transfected cells; host or cells: CHO cells
T1 sequence (P21917 1-419): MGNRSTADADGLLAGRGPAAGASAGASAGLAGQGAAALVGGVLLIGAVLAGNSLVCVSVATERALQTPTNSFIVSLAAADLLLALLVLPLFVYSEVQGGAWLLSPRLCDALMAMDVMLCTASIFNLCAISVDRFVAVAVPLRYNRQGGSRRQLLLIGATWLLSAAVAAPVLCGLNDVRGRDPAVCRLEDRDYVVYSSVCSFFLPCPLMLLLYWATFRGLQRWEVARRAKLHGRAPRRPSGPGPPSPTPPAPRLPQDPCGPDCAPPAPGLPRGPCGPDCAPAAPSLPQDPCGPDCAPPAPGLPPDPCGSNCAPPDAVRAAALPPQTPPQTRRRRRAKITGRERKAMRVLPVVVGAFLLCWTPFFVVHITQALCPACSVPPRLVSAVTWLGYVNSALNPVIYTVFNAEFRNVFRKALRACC
Procedure: D4 Radioligand Receptor Binding Assay
Membranes from CHO cells expressing D4 human receptors, were suspended in incubation buffer.
Binding assays were performed in MultiProbe 204 pipetting system (Packard), according to a predetermined mapping, consistent with the software Screen. The compounds were tested in singlicate at one concentration (10^−7 M) in a total volume of 1000 μl (980 μl of diluted membranes, 10 μl DMSO or unlabelled ligand and 10 μl of [^3H] YM-09151-2 (0.15-0.25 nM). After incubation for 120 minutes at 27° C., the reaction was stopped by rapid filtration through Tomtec Cell Harvester (48 wells) using Filtermat B (presoaked in 0.1% PEI) filters. Filters were washed with ice-cold 50 mM Tris-HCl (pH 7.4) buffer (9×700 μl), dried, covered with MeltiLex B/HS (Wallac) scintillator sheets and heated in oven at 80° C. to 90° C. for about 10 minutes, transferred into plastic sample bags (Wallac), sealed, and put into 1024 Beta Plate scintillation counter (Wallac). Non-specific binding was determined in the presence of clozapine dissolved in DMSO to a final concentration of 10^−5 M.
(§1) The specific radioligand binding to the receptor was defined by the difference between total binding and non-specific binding, determined in the presence of an excess of unlabelled ligand. Results were expressed as percentage of control specific binding obtained in the presence of the compounds.

5-HT1A = target: T2, 5-HT1A (Homo sapiens, UniProt P08908); assay: 5HT1A Radioligand Receptor Binding Assay ([3H]-8-OH-DPAT, CHO cell membranes); design: expressed in transfected cells; host or cells: CHO cells; conditions: CHO membranes, human 5-HT1A; for 5-HT1A Receptor Binding Assay % inhibition (10^−7 M) / inhibition at 0.1 µM: compound 10^−7 M, singlicate, [3H]-8-OH-DPAT 0.6-0.7 nM; for IC50: [3H]-8-OH-DPAT, read-out: 5-HT1A Receptor Binding IC50
T2 sequence (P08908 1-422): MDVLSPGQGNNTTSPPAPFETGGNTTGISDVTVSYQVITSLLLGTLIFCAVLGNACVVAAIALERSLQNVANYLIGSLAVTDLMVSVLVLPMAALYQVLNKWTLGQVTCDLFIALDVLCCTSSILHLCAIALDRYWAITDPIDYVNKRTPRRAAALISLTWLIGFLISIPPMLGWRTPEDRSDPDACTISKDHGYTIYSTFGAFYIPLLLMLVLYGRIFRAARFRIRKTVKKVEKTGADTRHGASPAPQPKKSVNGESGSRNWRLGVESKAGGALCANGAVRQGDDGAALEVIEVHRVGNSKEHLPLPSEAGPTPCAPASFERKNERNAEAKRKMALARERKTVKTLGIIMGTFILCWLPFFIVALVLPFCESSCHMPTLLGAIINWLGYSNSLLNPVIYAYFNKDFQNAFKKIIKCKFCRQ
Procedure: 5HT1A Radioligand Receptor Binding Assay
Membranes from CHO cells, expressing 5-HT1A human receptors were suspended in incubation buffer.
Binding assays were performed in MultiProbe 204 pipetting system (Packard), according to a predetermined mapping, consistent with the software Screen. The compounds were tested in singlicate at one concentration (10^−7 M) in a total volume of 1000 μl. 980 μl of diluted membranes, 10 μl DMSO or unlabelled ligand and 10 μl of [^3H]-8-OH-DPAT (0.6-0.7 nM) were incubated for 60 minutes at 27° C. The reaction was stopped by rapid filtration through Tomtec Cell Harvester (48 wells) using Filtermat B (presoaked in 0.1% PEI) filters. Filters were washed with ice-cold 50 mM Tris-HCl (pH 7.4) buffer (9×700 μl), dried, covered with MeltiLex B/HS scintillator sheets (Wallac) and heated at 80° C. to 90° C. for about 10 minutes, transferred into plastic sample bags (Wallac), sealed, and put into 1024 Beta Plate scintillation counter (Wallac). Non-specific binding was determined in the presence of 5-HT (10^−5 M).
as §1, with “compounds. The affinity values (IC50) for the compounds were obtained by a nonlinear least squares regression analysis on the basis of a one binding site model.” for “compounds.”

Structure (SMILES)	D4 Receptor Binding Assay % inhibition (10^−7 M) (D4 human receptors) [%]	5-HT1A Receptor Binding Assay % inhibition (10^−7 M) (5-HT1A) [%]	inhibition at 0.1 µM (D4 human receptors) [%]	IC50 (5-HT1A) [nM]	inhibition at 0.1 µM (5-HT1A) [%]
CCNC(=O)OCCn1c(=O)n(CCCCN2CC=C(c3ccccc3)CC2)c2ccccc21 [Compound 84]	42	52			
O=c1n(CCN2CCCCC2)c2ccccc2n1CCN1CCN(c2cccc(Cl)c2)CC1 [Compound 145]	42	85			
O=c1n(CCN2CCCCC2)c2ccccc2n1CCN1CCN(c2cccc(C(F)(F)F)c2)CC1 [Compound 149]	35	88			
O=c1n(CCN2CC=C(c3ccccc3)CC2)c2ccccc2n1CCN1CCCCC1 [Compound 150]	52	57			
COCCn1c(=O)n(CCN2CC=C(c3ccccc3)CC2)c2ccccc21 [Compound 169]	58	85			
O=c1n(CCO)c2ccccc2n1CCN1CC=C(c2ccccc2)CC1 [Compound 188]	78	78			
O=c1n(C/C=C\CN2CCN(c3cccc(Cl)c3)CC2)c2ccccc2n1CCN1CCOCC1 [Compound 263]			42	8.8	92
O=c1n(C/C=C\CN2CCc3c([nH]c4ccccc34)C2)c2ccccc2n1CCN1CCCCC1 [Compound 316]	94	72			
O=c1n(C/C=C\CN2CC=C(c3ccccc3)CC2)c2ccccc2n1CCN1CCCCC1 [Compound 319]	70	94			
O=c1n(C/C=C/CN2CCN(c3ccccc3)CC2)c2ccccc2n1CCN1CCCCC1 [Compound 327]	74	78			
O=c1n(C/C=C/CN2CCN(c3cccc(Cl)c3)CC2)c2ccccc2n1CCN1CCCCC1 [Compound 331]	92	100			
O=c1n(C/C=C/CN2CCN(c3ncccn3)CC2)c2ccccc2n1CCN1CCCCC1 [Compound 332]	85	78			
O=c1n(C/C=C/CN2CC=C(c3ccccc3)CC2)c2ccccc2n1CCN1CCCCC1 [Compound 336]	81	90			
O=c1n(C/C=C/CN2CCN(c3ncccn3)CC2)c2ccccc2n1CCN1CCOCC1 [Compound 349]	31	73			
O=c1n(C/C=C\CN2CCN(c3ccccn3)CC2)c2ccccc2n1CCO [Compound 364]	36	77			
O=c1n(C/C=C\CN2CCN(c3cccc(Cl)c3)CC2)c2ccccc2n1CCO [Compound 365]			63	15	

Continued, values first:

D4 Receptor Binding Assay % inhibition (10^−7 M) (D4 human receptors) [%]	5-HT1A Receptor Binding Assay % inhibition (10^−7 M) (5-HT1A) [%]	inhibition at 0.1 µM (D4 human receptors) [%]	IC50 (5-HT1A) [nM]	inhibition at 0.1 µM (5-HT1A) [%]	Structure (SMILES)
62	92				COc1ccccc1N1CCN(CCCCn2c(=O)n(CCO)c3ccccc32)CC1 [Compound 74]
54	67				CCNC(=O)OCCn1c(=O)n(CCCCN2CCN(c3ccccc3)CC2)c2ccccc21 [Compound 75]
44	69				CCNC(=O)OCCn1c(=O)n(CCCCN2CCN(c3ccccn3)CC2)c2ccccc21 [Compound 78]
58	86				CCNC(=O)OCCn1c(=O)n(CCCCN2CCN(c3cccc(Cl)c3)CC2)c2ccccc21 [Compound 79]
79	77				CCNC(=O)OCCn1c(=O)n(CCCCN2CCN(c3ccc(Cl)c(Cl)c3)CC2)c2ccccc21 [Compound 85]
55	94				CCNC(=O)OCCn1c(=O)n(CCCCN2CCN(c3cccc(C)c3C)CC2)c2ccccc21 [Compound 92]
62	94				CCNC(=O)OCCn1c(=O)n(CCCCN2CCN(c3ccccc3OC)CC2)c2ccccc21 [Compound 93]
72	88				CCNC(=O)OCCn1c(=O)n(CCCCN2CCN(c3cccc(C)c3)CC2)c2ccccc21 [Compound 94]
64	85				CCNC(=O)OCCn1c(=O)n(CCCCN2CCN(c3ccccc3C)CC2)c2ccccc21 [Compound 95]
72	92				CCNC(=O)OCCn1c(=O)n(CCCCN2CCN(c3ccccc3Cl)CC2)c2ccccc21 [Compound 96]
58	55				CC(=O)NCCn1c(=O)n(CCCCN2CCN(c3ccc(Cl)c(Cl)c3)CC2)c2ccccc21 [Compound 107]
36	80				CC(=O)NCCn1c(=O)n(CCCCN2CCN(c3ccccc3Cl)CC2)c2ccccc21 [Compound 118]
50	85				COc1ccccc1N1CCN(CCn2c(=O)n(CCN3CCCCC3)c3ccccc32)CC1 [Compound 159]
45	62				O=c1n(CCO)c2ccccc2n1CCN1CCN(c2ccccn2)CC1 [Compound 182]
99	54				O=c1n(CCO)c2ccccc2n1CCN1CCN(c2ccc(Cl)c(Cl)c2)CC1 [Compound 189]
43	77				COc1ccccc1N1CCN(CCn2c(=O)n(CCO)c3ccccc32)CC1 [Compound 197]
44	92				CCNC(=O)OCCn1c(=O)n(CCN2CCN(c3ccccc3OC)CC2)c2ccccc21 [Compound 216]
		34	7.9	96	COCCn1c(=O)n(C/C=C/CN2CCN(c3cccc(Cl)c3)CC2)c2ccccc21 [Compound 297]
46	86				O=c1n(C/C=C\CN2CCN(c3ccccc3)CC2)c2ccccc2n1CCO [Compound 361]
